Laboratory results published in patent publication US10111890B2, “9-aminomethyl minocycline compounds and uses thereof” (Paratek Pharmaceuticals, Inc., priority 2016, dated 2018).
Several values for one entry are separate records, joined by “and”; a condition that tells them apart may be missing. Equal values may be shown once.

Tests used:
[1] = system: ABSSSI known or suspected to be due to Gram-positive pathogens; assay: Phase 3 oral omadacycline vs oral linezolid in ABSSSI: Early Clinical Response 48-72 hours after first dose; type: in vivo, human; conditions: for Early Clinical Success, %: micro-mITT, % of N1; for Difference (95% CI) in Early Clinical Success rate: omadacycline minus linezolid
[2] = human, in vivo
[3] = system: ABSSSI; assay: Earlier Phase 3 i.v.-to-oral omadacycline vs linezolid study in ABSSSI: clinical success; type: in vivo, human; conditions: 7-14 days after the last dose; i.v. with switch to oral
[4] = 48-72 hours after first dose, mITT population
[5] = Cellulitis/erysipelas, actual type, 48-72 hours, mITT
[6] = Cellulitis/erysipelas, as randomized, 48-72 hours, mITT
[7] = Major Abscess, actual type, 48-72 hours, mITT
[8] = Major Abscess, as randomized, 48-72 hours, mITT
[9] = Wound Infection, actual type, 48-72 hours, mITT
[10] = Wound Infection, as randomized, 48-72 hours, mITT

SMILES: CN(C)c1cc(CNCC(C)(C)C)c(O)c2c1C[C@H]1C[C@H]3[C@H](N(C)C)C(O)=C(C(N)=O)C(=O)[C@@]3(O)C(O)=C1C2=O [Omadacycline, 9-[(2,2-dimethyl-propylamino)-methyl]-minocycline]
- Difference (95% CI) in Early Clinical Success rate, omadacycline minus linezolid [1, 4]: 5.0% and 5.0 (−0.2, 10.3) %
- Early Clinical Response: Clinical Failure [1, 4]: 26 (7.2) n (%)
- Early Clinical Response: Clinical Failure or Indeterminate [1, 4]: 45 (12.5) n (%)
- Early Clinical Response: Indeterminate [1, 4]: 19 (5.3) n (%)
- Early Clinical Response: Clinical Success ([1]; 48-72 hours after first dose, mITT population (N = 360 per arm)): 315 (87.5) n (%)
- Early Clinical Response: Clinical Success ([1]; Cellulitis/erysipelas, actual type of infection, 48-72 hours, mITT): 68 (79.1) n (%)
- Early Clinical Response: Clinical Failure [1, 5]: 8 (9.3) n (%)
- Early Clinical Response: Clinical Failure or Indeterminate [1, 5]: 18 (20.9) n (%)
- Early Clinical Response: Indeterminate [1, 5]: 10 (11.6) n (%)
- Early Clinical Response: Clinical Failure [1, 6]: 8 (9.8) n (%)
- Early Clinical Response: Clinical Failure or Indeterminate [1, 6]: 17 (20.7) n (%)
- Early Clinical Response: Indeterminate [1, 6]: 9 (11.0) n (%)
- Early Clinical Response: Clinical Success ([1]; Cellulitis/erysipelas, type of infection as randomized, 48-72 hours, mITT): 65 (79.3) n (%)
- Early Clinical Response: Clinical Success ([1]; Major Abscess, actual type of infection, 48-72 hours, mITT): 60 (93.8) n (%)
- Early Clinical Response: Clinical Failure [1, 7]: 1 (1.6) n (%)
- Early Clinical Response: Clinical Failure or Indeterminate [1, 7]: 4 (6.3) n (%)
- Early Clinical Response: Indeterminate [1, 7]: 3 (4.7) n (%)
- Early Clinical Response: Clinical Failure [1, 8]: 1 (1.6) n (%)
- Early Clinical Response: Clinical Failure or Indeterminate [1, 8]: 4 (6.3) n (%)
- Early Clinical Response: Indeterminate [1, 8]: 3 (4.7) n (%)
- Early Clinical Response: Clinical Success ([1]; Major Abscess, type of infection as randomized, 48-72 hours, mITT): 60 (93.8) n (%)
- Early Clinical Response: Clinical Success ([1]; Wound Infection, actual type of infection, 48-72 hours, mITT): 187 (89.0) n (%)
- Early Clinical Response: Clinical Failure [1, 9]: 17 (8.1) n (%)
- Early Clinical Response: Clinical Failure or Indeterminate [1, 9]: 23 (11.0) n (%)
- Early Clinical Response: Indeterminate [1, 9]: 6 (2.9) n (%)
- Early Clinical Response: Clinical Failure [1, 10]: 17 (7.9) n (%)
- Early Clinical Response: Clinical Failure or Indeterminate [1, 10]: 24 (11.2) n (%)
- Early Clinical Response: Indeterminate [1, 10]: 7 (3.3) n (%)
- Early Clinical Response: Clinical Success ([1]; Wound Infection, type of infection as randomized, 48-72 hours, mITT): 190 (88.8) n (%)
- Early Clinical Success, % ([1]; baseline pathogen Clostridium perfringens, 48-72 hours after first dose): (100.0) %
- Early Clinical Success, % ([1]; baseline pathogen Enterobacter cloacae, 48-72 hours after first dose): (100.0) %
- Early Clinical Success, % ([1]; baseline pathogen Enterococcus faecalis VSE, 48-72 hours after first dose): (85.7) %
- Early Clinical Success, % ([1]; baseline pathogen Enterococcus faecalis, 48-72 hours after first dose): (87.5) %
- Early Clinical Success, % ([1]; baseline pathogen Enterococcus faecium VSE, 48-72 hours after first dose): (100.0) %
- Early Clinical Success, % ([1]; baseline pathogen Enterococcus faecium, 48-72 hours after first dose): (100.0) %
- Early Clinical Success, % ([1]; baseline pathogen Escherichia coli, 48-72 hours after first dose): (100.0) %
- Early Clinical Success, % ([1]; baseline pathogen Finegoldia magna, 48-72 hours after first dose): (66.7) %
- Early Clinical Success, % ([1]; baseline pathogen Klebsiella pneumoniae, 48-72 hours after first dose): (80.0) %
- Early Clinical Success, % ([1]; baseline pathogen MRSA, 48-72 hours after first dose): (93.3) %
- Early Clinical Success, % ([1]; baseline pathogen MSSA, 48-72 hours after first dose): (84.2) %
- Early Clinical Success, % ([1]; baseline pathogen Prevotella denticola, 48-72 hours after first dose): (100.0) %
- Early Clinical Success, % ([1]; baseline pathogen Prevotella melaninogenica, 48-72 hours after first dose): (100.0) %
- Early Clinical Success, % ([1]; baseline pathogen Staphylococcus aureus, 48-72 hours after first dose): (88.2) %
- Early Clinical Success, % ([1]; baseline pathogen Staphylococcus lugdunensis, 48-72 hours after first dose): (80.0) %
- Early Clinical Success, % ([1]; baseline pathogen Streptococcus agalactiae, 48-72 hours after first dose): (50.0) %
- Early Clinical Success, % ([1]; baseline pathogen Streptococcus anginosus group, 48-72 hours after first dose): (94.7) %
- Early Clinical Success, % ([1]; baseline pathogen Streptococcus anginosus, 48-72 hours after first dose): (100.0) %
- Early Clinical Success, % ([1]; baseline pathogen Streptococcus constellatus, 48-72 hours after first dose): (88.9) %
- Early Clinical Success, % ([1]; baseline pathogen Streptococcus intermedius, 48-72 hours after first dose): (91.3) %
- Early Clinical Success, % ([1]; baseline pathogen Streptococcus mitis, 48-72 hours after first dose): (100.0) %
- Early Clinical Success, % ([1]; baseline pathogen Streptococcus pyogenes, 48-72 hours after first dose): (82.8) %
- Early Clinical Success, % ([1]; baseline pathogen Streptococcus viridans group, 48-72 hours after first dose): (100.0) %
- Difference (95% CI) in Early Clinical Success rate ([1]; Cellulitis/erysipelas, actual type, mITT): 1.7 (−10.8, 14.3)
- Difference (95% CI) in Early Clinical Success rate ([1]; Cellulitis/erysipelas, as randomized, mITT): 1.9 (−10.8, 14.5)
- Difference (95% CI) in Early Clinical Success rate ([1]; Major Abscess, actual type, mITT): 5.0 (−5.4, 16.2)
- Difference (95% CI) in Early Clinical Success rate ([1]; Major Abscess, as randomized, mITT): 5.0 (−5.4, 16.2)
- Difference (95% CI) in Early Clinical Success rate ([1]; Wound Infection, actual type, mITT): 6.3 (−0.3, 13.1)
- Difference (95% CI) in Early Clinical Success rate ([1]; Wound Infection, as randomized, mITT): 6.1 (−0.6, 12.8)
- discontinuation due to TEAE, % of subjects [2]: 1.9%
- serious TEAEs, % of subjects [2]: 3.4%
- treatment-emergent adverse events (TEAEs), % of subjects [2]: 48.3%
- clinical success based on investigator's assessment of clinical response [3]: 86.1%
